From ChEMBL document CHEMBL3808324, “Promising Therapeutic Potential of P2X7 Modulators” (ACS Med Chem Lett, 2016)
pIC50: −log10 of the molar value.

Experiments:
[1] = biological target: T1, P2X purinoceptor 7 (Homo sapiens) (UniProt Q99572); experiment: (§1) Antagonist activity against ATP-gated P2X7 receptor in LPS-stimulated human PBMC assessed as reduction in P2X7 agonist 2'(3')-O-(4-benzoylbenzoyl) adenosine 5'-triphosphate-induced IL-1beta at 1 uM incubated for 30 mins after 1 hr pre-treatment with LPS followed by Bz-ATP-stimulation for 1.5 hrs by ELISA; set-up: scale not given: the % may be the effect or the level left
T1 sequence (whole entry): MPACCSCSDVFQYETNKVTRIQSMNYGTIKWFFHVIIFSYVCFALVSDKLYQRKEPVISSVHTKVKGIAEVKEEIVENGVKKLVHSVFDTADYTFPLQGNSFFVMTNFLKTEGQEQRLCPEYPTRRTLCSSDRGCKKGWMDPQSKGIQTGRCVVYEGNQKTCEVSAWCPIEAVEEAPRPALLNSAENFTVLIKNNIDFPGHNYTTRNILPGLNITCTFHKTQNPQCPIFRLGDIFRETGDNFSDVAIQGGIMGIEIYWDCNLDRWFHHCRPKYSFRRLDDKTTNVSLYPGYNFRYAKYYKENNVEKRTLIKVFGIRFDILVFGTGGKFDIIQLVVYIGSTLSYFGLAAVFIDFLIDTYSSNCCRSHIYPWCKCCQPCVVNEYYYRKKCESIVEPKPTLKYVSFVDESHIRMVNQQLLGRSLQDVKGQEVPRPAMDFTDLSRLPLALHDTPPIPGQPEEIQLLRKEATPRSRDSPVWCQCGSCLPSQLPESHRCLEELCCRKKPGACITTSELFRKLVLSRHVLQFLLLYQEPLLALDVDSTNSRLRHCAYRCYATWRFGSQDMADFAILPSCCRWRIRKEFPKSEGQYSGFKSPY

[2] = biological target: T1, P2X purinoceptor 7 (Homo sapiens); experiment: as §1, with “at 10” for “at 1”; set-up: scale not given: the % may be the effect or the level left
[3] = biological target: T2, P2X purinoceptor 7 (Rattus norvegicus, UniProt Q64663); experiment: Antagonist activity against rat recombinant ATP-gated P2X7 receptor expressed in human 1321N1 cells assessed as reduction in BzATP -induced Ca2+ flux pre-incubated for 30 mins before BzATP addition by calcium-4 dye based FLIPR assay; type: cell-based
T2 sequence (Q64663 whole entry): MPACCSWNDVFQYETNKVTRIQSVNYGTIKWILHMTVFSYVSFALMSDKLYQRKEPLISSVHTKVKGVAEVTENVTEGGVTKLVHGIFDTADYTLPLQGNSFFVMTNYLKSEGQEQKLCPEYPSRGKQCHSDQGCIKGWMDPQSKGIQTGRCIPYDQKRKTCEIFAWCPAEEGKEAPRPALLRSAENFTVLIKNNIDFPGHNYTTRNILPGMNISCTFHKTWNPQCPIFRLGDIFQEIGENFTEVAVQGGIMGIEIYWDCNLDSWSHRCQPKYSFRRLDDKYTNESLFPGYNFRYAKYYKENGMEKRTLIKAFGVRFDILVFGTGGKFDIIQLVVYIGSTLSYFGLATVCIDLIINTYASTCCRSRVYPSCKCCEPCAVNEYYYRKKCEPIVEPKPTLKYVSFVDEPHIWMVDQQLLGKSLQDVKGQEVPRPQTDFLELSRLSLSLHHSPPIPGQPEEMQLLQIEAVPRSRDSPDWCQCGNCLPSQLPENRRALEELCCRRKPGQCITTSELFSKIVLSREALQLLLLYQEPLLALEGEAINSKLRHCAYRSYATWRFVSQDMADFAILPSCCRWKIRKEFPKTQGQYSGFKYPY

| SMILES | Activity [1] | Activity [2] | pIC50 [3] |
| --- | --- | --- | --- |
| O=C(c1cccc(Cl)c1Cl)N1CCc2c(ncnc2-n2nccn2)C1 | 71.8% | – | – |
| Cc1nc2c(c(-c3c(C)noc3C)n1)CCN(C(=O)c1cccc(C(F)(F)F)c1Cl)C2 | 104% | 100% | – |
| O=C(c1cccc(Cl)c1Cl)N1CCc2c(ncnc2-c2ccn[nH]2)C1 | 14.2% | – | – |
| O=C(c1cccc(C(F)(F)F)c1Cl)N1CCc2c(ncnc2-c2ccccn2)C1 | 26.9% | – | – |
| Cc1nc2c(c(-c3ccn[nH]3)n1)C[C@@H](C)N(C(=O)c1ccc(F)c(C(F)(F)F)c1Cl)C2 (single isomer, unassigned) | – | -6.1% | – |
| COc1cccc(C(=O)N2Cc3nc(C)nc(-c4ccn[nH]4)c3CC2C)c1F (stereo not drawn) | – | 2% | 5.84 |
